Assay results: patent US8748422B2, “Pharmaceutical compositions containing quinazoline derivatives for treating as serotonin receptor antagonist” (Korea Institute of Science and Technology, priority 2007, dated 2014)

Biological target: T1, serotonin 5-HT3A receptor (Homo sapiens, UniProt P46098)
T1 sequence (P46098 24-478): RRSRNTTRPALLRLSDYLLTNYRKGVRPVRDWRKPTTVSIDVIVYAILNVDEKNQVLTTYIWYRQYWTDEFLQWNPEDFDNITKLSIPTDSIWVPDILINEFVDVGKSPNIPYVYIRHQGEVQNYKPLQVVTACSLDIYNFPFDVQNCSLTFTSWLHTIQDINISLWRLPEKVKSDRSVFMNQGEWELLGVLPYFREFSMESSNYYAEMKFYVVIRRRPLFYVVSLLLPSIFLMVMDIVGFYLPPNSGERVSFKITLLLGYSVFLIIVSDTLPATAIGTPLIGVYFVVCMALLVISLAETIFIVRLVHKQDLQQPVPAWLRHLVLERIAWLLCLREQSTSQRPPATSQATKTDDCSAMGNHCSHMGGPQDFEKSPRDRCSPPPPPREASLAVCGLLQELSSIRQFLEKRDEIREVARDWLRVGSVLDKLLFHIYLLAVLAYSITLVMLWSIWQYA
Assay: Assay for 5-HT3A receptor: two-electrode voltage clamp in Xenopus oocytes, inhibition of 5-HT-induced inward current
Type: cell-based
Conditions: 5-HT3A receptor expressed in Xenopus laevis oocytes; for nH (Hill coefficient) / inhibition: from concentration-response curves; for inhibition / IC50: inward current induced by 5-HT (1 μM); for inhibition: read-out: Vmax (maximum inhibition value); for IC50: test concentrations 0.003-100 μM, read-out: IC50 (50% inhibitory concentration)

Compound | nH (Hill coefficient) | inhibition [%] | IC50 [nM]
O=C(NCCN1CCCCC1)c1ccc2c(=O)n(-c3ccc(F)cc3)c(=O)[nH]c2c1 [Compound 2, 3-(4-Fluoro-phenyl)-2,4-dioxo-1,2,3,4-tetrahydro-quinazoline-7-carboxylic acid (2-piperidine-1-yl-ethyl)-amide] | 0.9 ± 0.1 | 108 ± 6 | 1900 ± 400
O=C(NCCN1CCCCC1)c1ccc2c(=O)n(Cc3ccccc3F)c(=O)[nH]c2c1 [Compound 4, 3-(2-Fluoro-benzyl)-2,4-dioxo-1,2,3,4-tetrahydro-quinazoline-7-carboxylic acid (2-piperidine-1-yl-ethyl)-amide] | 1.4 ± 0.4 | 100 ± 9.6 | 2100 ± 600
O=C(NCCN1CCCCC1)c1ccc2c(=O)n(Cc3cccc(F)c3)c(=O)[nH]c2c1 [Compound 5, 3-(3-Fluoro-benzyl)-2,4-dioxo-1,2,3,4-tetrahydro-quinazoline-7-carboxylic acid (2-piperidine-1-yl-ethyl)-amide] | 1.0 ± 0.2 | 108 ± 11.5 | 2400 ± 800
COc1ccccc1Cn1c(=O)[nH]c2cc(C(=O)NCCN3CCCCC3)ccc2c1=O [Compound 7, 3-(2-Methoxy-benzyl)-2,4-dioxo-1,2,3,4-tetrahydro-quinazoline-7-carboxylic acid (2-piperidine-1-yl-ethyl)-amide] | 1.1 ± 0.2 | 103 ± 5.1 | 1400 ± 200
O=C(NCCN1CCCCC1)c1ccc2c(=O)n(C3CCCCC3)c(=O)[nH]c2c1 [Compound 10, 3-Cyclohexyl-2,4-dioxo-1,2,3,4-tetrahydro-quinazoline-7-carboxylic acid (2-piperidine-1-yl-ethyl)-amide] | 1.1 ± 0.1 | 98.8 ± 4.2 | 2000 ± 300
Cn1c(=O)[nH]c2cc(C(=O)NCCN3CCCCC3)ccc2c1=O [Compound 12, 3-Methyl-2,4-dioxo-1,2,3,4-tetrahydro-quinazoline-7-carboxylic acid (2-piperidine-1-yl-ethyl)-amide] | 1.4 ± 0.1 | 103 ± 3.3 | 2200 ± 200
O=C(NCCN1CCCCC1)c1ccc2c(=O)n(Cc3ccccc3Cl)c(=O)[nH]c2c1 [Compound 13, (2-Chloro-benzyl)-2,4-dioxo-1,2,3,4-tetrahydro-quinazoline-7-carboxylic acid (2-piperidine-1-yl-ethyl)-amide] | – | 96 ± 3.9 | –
O=C(NCCCN1CCOCC1)c1ccc2c(=O)n(Cc3ccc(Cl)cc3)c(=O)[nH]c2c1 [Compound 16, 3-(4-Chloro-benzyl)-2,4-dioxo-1,2,3,4-tetrahydro-quinazoline-7-carboxylic acid (3-morpholine-4-yl-propyl)-amide] | 5.3 ± 1.5 | 52.5 ± 0.6 | 1300 ± 100
O=C(NCCCN1CCCCC1)c1ccc2c(=O)n(Cc3ccc(Cl)cc3)c(=O)[nH]c2c1 [Compound 19, 3-(4-Chloro-benzyl)-2,4-dioxo-1,2,3,4-tetrahydro-quinazoline-7-carboxylic acid (3-piperidine-1-yl-propyl)-amide] | 1.5 ± 0.2 | 98.2 ± 4.5 | 5700 ± 600
CN1[C@@H]2CC[C@H]1C[C@@H](OC(=O)c1cc(Cl)cc(Cl)c1)C2 [MDL72222, reference compound] | 1.25 ± 0.2 | – | –

Next, values leading:

nH (Hill coefficient) | inhibition [%] | IC50 [nM] | Compound
0.9 ± 0.1 | 103 ± 12.8 | 7500 ± 2500 | O=C(NCCN1CCCC1)c1ccc2c(=O)n(Cc3ccc(Cl)cc3)c(=O)[nH]c2c1 [Compound 1, 3-(4-Chloro-benzyl)-2,4-dioxo-1,2,3,4-tetrahydro-quinazoline-7-carboxylic acid (2-pyrrolidine-1-yl-ethyl)-amide]
1.4 ± 0.2 | 101 ± 3.6 | 1600 ± 200 | COc1ccc(-n2c(=O)[nH]c3cc(C(=O)NCCN4CCCCC4)ccc3c2=O)cc1 [Compound 3, 3-(4-Methoxy-phenyl)-2,4-dioxo-1,2,3,4-tetrahydro-quinazoline-7-carboxylic acid (2-piperidine-1-yl-ethyl)-amide]
1.0 ± 0.2 | 105 ± 7.5 | 1900 ± 400 | O=C(NCCN1CCCCC1)c1ccc2c(=O)n(Cc3ccc(F)cc3)c(=O)[nH]c2c1 [Compound 6, 3-(4-Fluoro-benzyl)-2,4-dioxo-1,2,3,4-tetrahydro-quinazoline-7-carboxylic acid (2-piperidine-1-yl-ethyl)-amide]
1.3 ± 0.3 | 107 ± 8.5 | 2700 ± 600 | COc1cccc(Cn2c(=O)[nH]c3cc(C(=O)NCCN4CCCCC4)ccc3c2=O)c1 [Compound 8, 3-(3-Methoxybenzyl)-2,4-dioxo-1,2,3,4-tetrahydro-quinazoline-7-carboxylic acid (2-piperidine-1-yl-ethyl)-amide]
1.7 ± 0.2 | 96.4 ± 2.9 | 800 ± 100 | COc1ccc(Cn2c(=O)[nH]c3cc(C(=O)NCCN4CCCCC4)ccc3c2=O)cc1 [Compound 9, 3-(4-Methoxybenzyl)-2,4-dioxo-1,2,3,4-tetrahydro-quinazoline-7-carboxylic acid (2-piperidine-1-yl-ethyl)-amide]
1.3 ± 0.1 | 104 ± 3.6 | 2200 ± 200 | CCCn1c(=O)[nH]c2cc(C(=O)NCCN3CCCCC3)ccc2c1=O [Compound 11, 2,4-Dioxo-3-propyl-1,2,3,4-tetrahydro-quinazoline-7-carboxylic acid (2-piperidine-1-yl-ethyl)-amide]
1.2 ± 0.2 | 106 ± 2.5 | 3300 ± 500 | O=C(NCCN1CCCCC1)c1ccc2c(=O)n(Cc3ccc(Cl)cc3)c(=O)[nH]c2c1 [Compound 14, 3-(4-Chloro-benzyl)-2,4-dioxo-1,2,3,4-tetrahydro-quinazoline-7-carboxylic acid (2-piperidine-1-yl-ethyl)-amide]
1.2 ± 0.1 | 104 ± 2.5 | 2800 ± 200 | CC1CCCCN1CCNC(=O)c1ccc2c(=O)n(Cc3ccc(Cl)cc3)c(=O)[nH]c2c1 (centres unmarked) [Compound 15, 3-(4-Chloro-benzyl)-2,4-dioxo-1,2,3,4-tetrahydro-quinazoline-7-carboxylic acid (2-(2-methylpiperidine-1-yl)ethyl)-amide]
1.4 ± 0.1 | 99.5 ± 1.6 | 4800 ± 200 | CCC1CCCCN1CCCNC(=O)c1ccc2c(=O)n(Cc3ccc(Cl)cc3)c(=O)[nH]c2c1 (centres unmarked) [Compound 18, 3-(4-Chloro-benzyl)-2,4-dioxo-1,2,3,4-tetrahydro-quinazoline-7-carboxylic acid [3-(2-ethyl-piperidine-1-yl)-propyl]-amide]
